Measurements taken from publication PMC12210405, “Identification of chemical scaffolds for targeting ubiquitin-specific protease 11 (USP11) through high-throughput virtual screening” (Journal of Enzyme Inhibition and Medicinal Chemistry, 2025).
pIC50, pKd: −log10 of the molar value.

Key:
GST-USP11 [1] = target: T1, GST-USP11 (Homo sapiens, UniProt P51784); test: Fluorescence-based deubiquitinating enzyme activity assay (Ub-AMC fluorogenic substrate); type: biochemical; details: for inhibition at 25 µM: read-out: Percent inhibition of USP11
T1 construct: The plasmids containing the intact USP11 gene were introduced into E. coli BL21-CodonPlus (DE3); made in house; host or cells: E. coli BL21-CodonPlus (DE3)
T1 sequence (P51784 whole entry): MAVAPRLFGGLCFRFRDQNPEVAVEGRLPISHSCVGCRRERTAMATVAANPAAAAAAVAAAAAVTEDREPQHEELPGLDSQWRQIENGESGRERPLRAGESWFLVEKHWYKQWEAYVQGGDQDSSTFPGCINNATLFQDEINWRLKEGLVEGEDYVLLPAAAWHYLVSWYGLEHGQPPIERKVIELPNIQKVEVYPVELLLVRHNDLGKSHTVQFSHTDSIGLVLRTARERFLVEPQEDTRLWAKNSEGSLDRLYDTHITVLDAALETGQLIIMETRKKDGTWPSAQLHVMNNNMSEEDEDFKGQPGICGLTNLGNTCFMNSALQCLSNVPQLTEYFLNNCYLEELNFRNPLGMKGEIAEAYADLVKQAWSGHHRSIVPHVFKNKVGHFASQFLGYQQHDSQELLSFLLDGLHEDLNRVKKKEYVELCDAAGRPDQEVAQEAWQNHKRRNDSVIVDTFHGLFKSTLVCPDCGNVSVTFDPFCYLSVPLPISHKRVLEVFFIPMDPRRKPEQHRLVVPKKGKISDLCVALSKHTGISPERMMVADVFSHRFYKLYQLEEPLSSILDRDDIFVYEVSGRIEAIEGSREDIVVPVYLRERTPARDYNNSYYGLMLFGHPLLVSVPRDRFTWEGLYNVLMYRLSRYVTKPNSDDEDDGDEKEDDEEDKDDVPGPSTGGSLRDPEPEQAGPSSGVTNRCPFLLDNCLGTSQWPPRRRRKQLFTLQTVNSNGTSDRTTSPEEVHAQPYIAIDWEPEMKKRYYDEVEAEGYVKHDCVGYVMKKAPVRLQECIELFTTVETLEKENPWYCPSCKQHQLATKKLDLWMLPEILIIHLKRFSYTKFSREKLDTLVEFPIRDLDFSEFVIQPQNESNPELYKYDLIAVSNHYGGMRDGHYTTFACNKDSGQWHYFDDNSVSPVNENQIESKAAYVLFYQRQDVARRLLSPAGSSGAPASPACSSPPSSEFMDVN
Source text: The deubiquitinating enzyme (DUB) activity of USP11 was monitored using Ubiquitin AMC (Ub-AMC) (#U-550–050, R&D Systems, Minneapolis, MN, USA) as a fluorogenic substrate. […] USP11 DUB activity of vehicle control or each compound group was quantified by calculating the area under curve (AUC) using Prism 9 software (GraphPad, Boston, MA, USA).
Using a -fluorogenic substrate assay with ubiquitin 7-amido-4-methylcoumarin (Ub-AMC), we tested varying concentrations of both the protein and the substrate. […] Hits were defined as compounds that inhibited enzyme activity by more than 40%, as determined by fluorescence intensity at the 90-min endpoint.

USP15 = details: cited from earlier work
GST-USP11 [2] = target: T1, GST-USP11; test: Biolayer interferometry (BLI) assay; type: binding
Description: The binding affinities of tested compounds for USP11 were determined using BRAND® microplates (#BR781608, Merck, Darmstadt, Germany) and an Octet® R8 system (Sartorius AG, Göttingen, Germany). Octet GST Biosensors (#18–5096, Sartorius AG, Göttingen, Germany) captured with purified GST-USP11 (50 μg/ml) or without proteins were used as ligand sensors or reference sensors, respectively. For binding kinetic measurements, the association and dissociation of tested compounds (3.125–100 μM) in assay buffer (PBS, 0.02% Tween 20, 2% DMSO) were monitored at 25 °C with 1,000 rpm stirring for 90 s. For accurate baseline, wells containing assay buffer only were used as reference wells. All data were analysed by Octet BLI analysis software version 12.2 (Sartorius AG, Göttingen, Germany). The binding graphs were obtained using a double reference subtraction protocol and equilibrium dissociation constant (KD) values were calculated from the ratio of the dissociation rate constant (Kdis) to the association rate constant (Kon).

[3] = compound 25 µM, 90-min endpoint, Ub-AMC

SMILES: NCCNc1ccc(NCCN)c2c1C(=O)c1ccncc1C2=O [Compound 74a]
- inhibition at 25 µM (GST-USP11 [1]; [3]): 58.4%

SMILES: N#CC1CCCN1C(=O)CNC1CCCN(c2ccc([N+](=O)[O-])c3nonc23)C1 (centres unmarked) [Compound 18]
- inhibition at 25 µM (GST-USP11 [1]; [3]): 55.8%

SMILES: CCOc1cc(CN2CCN(c3ccc(NC(=N)c4ccc[nH]4)cc3)CC2)cc(OCC)c1O [Compound 73b]
- inhibition at 25 µM (GST-USP11 [1]; [3]): 38.1%

SMILES: NC1CCC(Nc2ccc([N+](=O)[O-])c3nonc23)CC1 (centres unmarked) [Compound 18e]
- inhibition at 25 µM (GST-USP11 [1]; [3]): 64.8%

SMILES: O=C1c2c(O)ccc(O)c2C(=O)c2c(NCCNCCO)ccc(NCCNCCO)c21 [Mitoxantrone, mitoxantrone]
- USP15 inhibition in words (USP15): also inhibits USP15

SMILES: CCCCCOc1cc(CN2CCN(c3ccc(NC(=N)c4cccs4)cc3)CC2)cc(OCCCCC)c1O [Compound 73d]
- inhibition at 25 µM (GST-USP11 [1]; [3]): 23%

SMILES: O=[N+]([O-])c1ccc(N2CCCCCC2)c2nonc12 [Compound 18c]
- inhibition at 25 µM (GST-USP11 [1]; [3]): 36.9%

SMILES: CCCCOc1cc(CN2CCN(c3ccc(NC(=N)c4cccs4)cc3)CC2)cc(OCCCC)c1O [Compound 73e]
- inhibition at 25 µM (GST-USP11 [1]; [3]): 23%

SMILES: N#CC1CCCN1C(=O)CNCCN1CCN(c2ccc([N+](=O)[O-])c3nonc23)CC1 (centres unmarked) [Compound 18h]
- inhibition at 25 µM (GST-USP11 [1]; [3]): 7.89%

SMILES: Nc1ccc(O)c2c1C(=O)c1c(cccc1[N+](=O)[O-])C2=O [Compound 74c]
- inhibition at 25 µM (GST-USP11 [1]; [3]): 38.1%

SMILES: O=[N+]([O-])c1ccc(N2CCCC2)c2nonc12 [Compound 18a]
- inhibition at 25 µM (GST-USP11 [1]; [3]): 15%

SMILES: N#CC1CCCN1C(=O)CNC1CCC(Nc2ccc([N+](=O)[O-])c3nonc23)CC1 (centres unmarked) [Compound 18f]
- inhibition at 25 µM (GST-USP11 [1]; [3]): 23.8%

SMILES: Nc1ccc(NC(=O)c2ccccc2)c2c1C(=O)c1ccccc1C2=O [Compound 74f]
- inhibition at 25 µM (GST-USP11 [1]; [3]): 7.38%

SMILES: O=[N+]([O-])c1ccc(N2CCCCC2)c2nonc12 [Compound 18b]
- inhibition at 25 µM (GST-USP11 [1]; [3]): 3.3%

SMILES: CCOC(=O)CCNc1ccc(Nc2ccc(C)cc2)c2c1C(=O)c1ccccc1C2=O [Compound 74d]
- inhibition at 25 µM (GST-USP11 [1]; [3]): 0%

SMILES: CCCCOc1cc(CN2CCN(c3ccc(NC(=N)c4ccc[nH]4)cc3)CC2)cc(OCCCC)c1O [Compound 73]
- inhibition at 25 µM (GST-USP11 [1]; [3]): 43.9%

SMILES: CCCCCOc1cc(CN2CCN(c3ccc(NC(=N)c4ccc[nH]4)cc3)CC2)cc(OCCCCC)c1O [Compound 73a]
- pIC50 (GST-USP11 [1]; USP11, Figure S6): 4.76
- inhibition at 25 µM (GST-USP11 [1]; [3]): 90.3%

SMILES: N#CC1CC=NN1C(=O)CNC1CCC(Nc2ccc([N+](=O)[O-])c3nonc23)CC1 (centres unmarked) [Compound 18g]
- inhibition at 25 µM (GST-USP11 [1]; [3]): 70.9%

SMILES: O=[N+]([O-])c1c(N2CCCCC2)cc(N2CCCCC2)c2nonc12 [Compound 18d]
- inhibition at 25 µM (GST-USP11 [1]; [3]): 27.9%

SMILES: CC(CO)C1CCC2C3C(CCC12C)C1(C)CCC(NCCCCN)C[C@@H]1C[C@H]3O (some centres unmarked) [Compound 57]
- inhibition at 25 µM (GST-USP11 [1]; [3]): 44.8%

SMILES: CCOc1cc(/C=C/C(=O)N2CCN(c3ccc(NC(=N)c4ccc[nH]4)cc3)CC2)cc(OCC)c1O [Compound 73c]
- inhibition at 25 µM (GST-USP11 [1]; [3]): 76.8%

SMILES: CCCCOc1cc(/C=C/C(=O)N2CCN(c3ccc(NC(=N)c4ccc[nH]4)cc3)CC2)cc(OCCCC)c1O [Compound 73f]
- pIC50 (GST-USP11 [1]; USP11, Figure S6): 4.71
- inhibition at 25 µM (GST-USP11 [1]; [3]): 89.9%

SMILES: O=C(CCc1ccc(F)cc1)N/N=C/c1ccc(O)c(O)c1O [Compound 29]
- inhibition at 25 µM (GST-USP11 [1]; [3]): 41.5%

SMILES: CN(c1ccc(C=O)cc1)c1cccc2c1C(=O)c1ccccc1C2=O [Compound 74e]
- inhibition at 25 µM (GST-USP11 [1]; [3]): 16.8%

SMILES: CC(C)[C@@H](CC[C@@H](C)[C@H]1CC[C@H]2[C@@H]3[C@H](O)C[C@H]4C[C@@H](NCCCNCCCCN)CC[C@]4(C)[C@H]3CC[C@]12C)OS(=O)(=O)O [Squalamine, squalamine]
- pKd (GST-USP11 [2]): 3.34
- kon (GST-USP11 [2]; Figure 3c): 1380 M⁻¹ s⁻¹
- koff (GST-USP11 [2]; Figure 3c, read-out: Kdis): 0.634 s⁻¹
- Percent inhibition of USP11 (GST-USP11 [1]; [3]): completely inhibits
- pIC50 (GST-USP11 [1]; recombinant USP11): 5.08

SMILES: O=C1c2ccccc2C(=O)c2c1cc(N1CCOCC1)cc2N1CCCCC1 [Compound 74g]
- inhibition at 25 µM (GST-USP11 [1]; [3]): 6.51%
